# Results published in US20240041042A1, “1-(PYRIDYL)-5-AZINYLPYRAZOLE DERIVATIVES, AND THEIR USE FOR CONTROL OF UNDESIRED PLANT GROWTH” (Bayer Aktiengesellschaft, priority 2020, published 2024).
# Read-outs that look alike come from different tables or passages of the source.
# Legend:
# Assay type in all cases: in vivo
# [1] = system: Digitaria sanguinalis (DIGSA); assay: Pre-emergence herbicidal action against DIGSA
# Outline: (§1)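 Seeds sown in pots and covered with soil; WP or EC formulations sprayed onto the soil surface at 600 l/ha water with 0.5% additive, at 320 g/ha or lower. Greenhouse growth for about 3 weeks, then visual scoring as % effect against untreated controls (100% = plants dead).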
# [2] = system: Brassica napus (BRSNW); details: crop plant compatibility, in comparison to untreated controls
# Outline: (§2)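 Crop injury rated visually in percent against untreated plants roughly 3 weeks after treatment (0% no effect, 100% plants dead). Compounds, as WP or EC with 0.5% additive in 600 l/ha water, were applied to the covering soil right after sowing; greenhouse growth. Suffixes a, b, c denote different dosages.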
# [3] = system: Glycine max (GLXMA); details: crop plant compatibility; for Pre-emergence action against GLXMA in %: 80 g/ha, in comparison to untreated controls
# Outline: as §2
# [4] = system: Oryza sativa (ORYSA); details: crop plant compatibility; for Pre-emergence action against ORYSA in %: in comparison to untreated controls
# Outline: as §2
# [5] = system: Triticum aestivum (TRZAS); details: crop plant compatibility; for Pre-emergence action against TRZAS in %: 80 g/ha, in comparison to untreated controls
# Outline: as §2
# [6] = system: Zea mays (ZEAMX); details: crop plant compatibility; for Pre-emergence action against ZEAMX in %: in comparison to untreated controls
# Outline: as §2
# [7] = system: Amaranthus retroflexus (AMARE); assay: Post-emergence herbicidal action against AMARE; details: 320 g/ha, visual rating about 3 weeks after treatment
# Outline: (§3)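 Values are percent visual activity (0% like control, 100% plants dead) after about 3 weeks in the greenhouse. Treatment: post-emergence spray at one-leaf stage, 600 l/ha spray volume, 0.5% additive, doses 320 g/ha or lower.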
# [8] = system: Verconica persica (VERPE); assay: Post-emergence herbicidal action against VERPE; details: 320 g/ha, VERPE
# Outline: as §3
# [9] = system: Oryza sativa (ORYSA); details: crop plant compatibility
# Outline: (§4)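 Percent effect on the crop was judged by eye against untreated controls, where 0% means like control and 100% means dead plants. Plants had been sprayed post-emergence at the one-leaf stage and then kept under optimum greenhouse conditions for about 3 weeks.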
# [10] = system: Triticum aestivum (TRZAS); details: crop plant compatibility, 80 g/ha, effect vs untreated controls
# Outline: as §4
# [11] = system: Zea mays (ZEAMX); details: for Post-emergence action against ZEAMX in %: crop plant compatibility, effect vs untreated controls
# Outline: as §4
# [12] = system: Abutilon theophrasti (ABUTH); assay: Pre-emergence herbicidal action against ABUTH; details: Dosage column 320 g/ha (title prints 3200 g/ha); scored visually after about 3 weeks; 100% = plants have died
# Outline: as §1
# [13] = system: Alopecurus myosuroides (ALOMY); assay: Pre-emergence herbicidal action against ALOMY; details: scored visually after about 3 weeks, 100% = plants have died
# Outline: as §1
# [14] = system: Amaranthus retroflexus (AMARE); assay: Pre-emergence herbicidal action against AMARE; details: visual scoring after about 3 weeks vs untreated controls
# Outline: as §1
# [15] = system: Avena fatua (AVEFA); assay: Pre-emergence herbicidal action against AVEFA; details: 320 g/ha, visual scoring after about 3 weeks vs untreated controls
# Outline: as §1
# [16] = system: Echinochloa crus-galli (ECHCG); assay: Pre-emergence herbicidal action against ECHCG; details: dosage 320 g/ha
# Outline: as §1
# [17] = system: Lolium rigidum (LOLRI); assay: Pre-emergence herbicidal action against LOLRI; details: dosage 320 g/ha
# Outline: as §1
# [18] = system: Matricaria inodora (MATIN); assay: Pre-emergence herbicidal action against MATIN
# Outline: as §1
# [19] = system: Polygonum convolvulus (POLCO); assay: Pre-emergence herbicidal action against POLCO; details: dosage 320 g/ha
# Outline: as §1
# [20] = system: Setaria viridis (SETVI); assay: Pre-emergence herbicidal action against SETVI; details: dosage 320 g/ha
# Outline: as §1
# [21] = system: Verconica persica (VERPE); assay: Pre-emergence herbicidal action against VERPE; details: dosage 320 g/ha
# Outline: as §1
# [22] = system: Viola tricolor (VIOTR); assay: Pre-emergence herbicidal action against VIOTR; details: 320 g/ha, Viola tricolor
# Outline: as §1
# [23] = system: Alopecurus myosuroides (ALOMY); assay: Post-emergence herbicidal action against ALOMY; details: visual rating about 3 weeks after treatment vs untreated controls (100% = plants have died, 0% = like control plants)
# Outline: as §3
# [24] = system: Avena fatua (AVEFA); assay: Post-emergence herbicidal action against AVEFA; details: visual rating about 3 weeks after treatment
# Outline: as §3
# [25] = system: Digitaria sanguinalis (DIGSA); assay: Post-emergence herbicidal action against DIGSA; details: visual rating about 3 weeks after treatment
# Outline: as §3
# [26] = system: Lolium rigidum (LOLRI); assay: Post-emergence herbicidal action against LOLRI; details: dosage 320 g/ha
# Outline: as §3
# [27] = system: Setaria viridis (SETVI); assay: Post-emergence herbicidal action against SETVI
# Outline: as §3
# [28] = system: Viola tricolor (VIOTR); assay: Post-emergence herbicidal action against VIOTR; details: 320 g/ha
# Outline: as §3
# [29] = 80 g/ha, effect in comparison to untreated controls
# [30] = 20 g/ha, effect vs untreated controls
smiles,measurement,setting,value
COC(=O)C=CC(C)NC(=O)COc1nn(-c2ccccn2)c(-c2ccc(F)nc2)c1Br (stereo not drawn) [Example I-345],Pre-emergence action against DIGSA in %,[1]; dosage 320 g/ha,90%
same,Pre-emergence action against BRSNW in %,[2]; 80 g/ha,20%
same,Pre-emergence action against GLXMA in %,[3],0%
same,Pre-emergence action against ORYSA in %,[4]; 80 g/ha,10%
same,Pre-emergence action against ORYSA in %,[4]; 320 g/ha,20%
same,Pre-emergence action against TRZAS in %,[5],10%
same,Pre-emergence action against ZEAMX in %,[6]; 80 g/ha,0%
same,Pre-emergence action against ZEAMX in %,[6]; 320 g/ha,10%
same,Post-emergence action against AMARE in %,[7],80%
same,Post-emergence action against VERPE in %,[8],80%
same,Post-emergence action against ORYSA in %,[9]; [29],20%
same,Post-emergence action against TRZAS in %,[10],10%
same,Post-emergence action against ZEAMX in %,[11]; 80 g/ha,0%
same,Post-emergence action against ZEAMX in %,[11]; 320 g/ha,10%
C[C@@H](Oc1nn(-c2ccc(F)cn2)c(-c2cncc(F)c2)c1Br)C(=O)O [Example I-13],Pre-emergence action against ABUTH,[12],90%
same,Pre-emergence action against ALOMY,[13]; 80 g/ha,90%
same,Pre-emergence action against ALOMY,[13]; 320 g/ha,100%
same,Pre-emergence action against AMARE in %,[14]; 80 g/ha,90%
same,Pre-emergence action against AMARE in %,[14]; 320 g/ha,100%
same,Pre-emergence action against AVEFA in %,[15],90%
same,Pre-emergence action against DIGSA in %,"[1]; 80 g/ha, visual scoring after about 3 weeks vs untreated controls",100%
same,Pre-emergence action against DIGSA in %,[1]; dosage 320 g/ha,100%
same,Pre-emergence action against ECHCG in %,[16],90%
same,Pre-emergence action against LOLRI in %,[17],90%
same,Pre-emergence action against MATIN in %,[18]; dosage 80 g/ha,80%
same,Pre-emergence action against MATIN in %,[18]; dosage 320 g/ha,80%
same,Pre-emergence action against POLCO in %,[19],100%
same,Pre-emergence action against SETVI in %,[20],90%
same,Pre-emergence action against VERPE in %,[21],80%
same,Pre-emergence action against VIOTR in %,[22],90%
same,Pre-emergence action against BRSNW in %,[2]; 20 g/ha,10%
same,Pre-emergence action against BRSNW in %,[2]; 80 g/ha,10%
same,Pre-emergence action against BRSNW in %,[2]; 320 g/ha,20%
same,Pre-emergence action against GLXMA,[3]; [30],10%
same,Pre-emergence action against GLXMA in %,[3],10%
same,Pre-emergence action against ORYSA,[4]; [30],0%
same,Pre-emergence action against ORYSA in %,[4]; 80 g/ha,10%
same,Pre-emergence action against TRZAS,[5]; [30],10%
same,Pre-emergence action against TRZAS in %,[5],20%
same,Pre-emergence action against ZEAMX,[6]; [30],10%
same,Post-emergence action against ALOMY in %,[23]; 80 g/ha,90%
same,Post-emergence action against ALOMY in %,[23]; 320 g/ha,90%
same,Post-emergence action against AVEFA in %,[24]; 80 g/ha,80%
same,Post-emergence action against AVEFA in %,[24]; 320 g/ha,90%
same,Post-emergence action against DIGSA in %,[25]; 80 g/ha,90%
same,Post-emergence action against DIGSA in %,[25]; 320 g/ha,90%
same,Post-emergence action against LOLRI in %,[26],90%
same,Post-emergence action against SETVI in %,[27]; dosage 80 g/ha,80%
same,Post-emergence action against SETVI in %,[27]; dosage 320 g/ha,90%
same,Post-emergence action against VERPE in %,[8],80%
same,Post-emergence action against VIOTR in %,[28],80%
same,Post-emergence action against ORYSA in %,[9]; [30],0%
same,Post-emergence action against ORYSA in %,[9]; [29],10%
same,Post-emergence action against ZEAMX in % (crop plant compatibility),"[11]; 20 g/ha, ZEAMX, effect in comparison to untreated controls",0%
